In patent US7030108B2, “Combating Parkinson's disease-related movement disorder” (Reed Richter, priority 1999, dated 2006):

How the values were obtained:
Type in all cases: in vivo, human
[1] = test system: Parkinsonian tremor (resting and action); test: Mirtazapine treatment of patients with Parkinsonian tremor (case reports)
Description: A patient with mild Parkinson's Disease for 4 years experienced recurrent tremor that interfered with their ability to hold and deal cards while playing bridge. […] The patient was administered mirtazapine (Remeron®, Organon) at a dosage of 30 mg per day, taken at night for concomitant depression. […] A person with a nine-year history of Parkinson's Disease characterized by bradykinesia and marked right upper extremity resting tremor was treated. […] In May 1998, they were started on mirtazapine (Remeron) at a dosage of 30 mg at night. […] No other medication had been changed.

[2] = test system: levodopa-induced dyskinesias; test: Mirtazapine treatment of Parkinson's Disease patients with levodopa/dopamine-induced dyskinesias (case reports)
Description: A person with a 15 year history of Parkinson's Disease was treated. […] In August, 1997, the patient was started on mirtazapine (Remeron) at a dosage of 3 mg at night to aid in sleep. […] Throughout the regimen of treatment, the dose of Sinemet remained stable. […] In May 1998, they were started on mirtazapine (Remeron) at a dosage of 30 mg at night. […] No other medication had been changed.

[3] = test system: essential tremor (action tremor); test: Treatment of patients with essential / action tremor without Parkinson's disease (case reports)
Description: A person with a 20-year history of upper extremity action tremor with a frequency of approximately 8–12 hz. The patient bad no signs or symptoms of Parkinson's disease. […] The patient was started on mirtazapine (Remeron) at a dosage of 30 mg at night.
A person with a lifelong history of action tremor and anxiety but no signs or symptoms of Parkinson's disease was treated. […] Although the tremor always improved with a decrease in the anxiety (using SSRIs and benzodiazepines) the tremor persisted at an unsatisfactory level of severity.
In March, 1998, the patient began medication with a dosage of 15 mg of mirtazapine (Remeron) at night, then on their own volition, increased the administration of the same dose of mirtazapine to twice a day (for a total dose of 30 mg).
Thus, in the patient group involved in the study of Examples 1–6, a total of fifteen individuals was treated with mirtazapine, and of such population, twelve of the patients responded well to treatment with substantial tremor reduction. Of such total of fifteen patients, eight patients had essential tremor, and five of the eight responded. […] Three patients had levodopa-induced dyskinesias and all three responded.

[4] = test system: sedation; test: Sedation / drowsiness side effect in treated patients
Description: Two months later, the patient discontinued the administration of mirtazapine because they were oversleeping. Such oversleeping behavior was not believed to relate to the administration of mirtazapine, however. The patient in fact stopped and restarted the mirtazapine multiple times.
A person with a 15 year history of Parkinson's Disease was treated. […] In August, 1997, the patient was started on mirtazapine (Remeron) at a dosage of 3 mg at night to aid in sleep. The next morning the patient's spouse telephoned excitedly to say that the spouse had only shaken for 15 minutes. This positive development continued making their “on” time more functional.
In almost all cases, the improvement in the tremor behavior came literally overnight, that is, after an initial 30 mg dose taken in the evening before retiring. […] Patients were aware of an improvement immediately. During neurological exam, patients described the types of activities that they could perform before and after administration of mirtazapine (e.g., dealing cards, feeding oneself without spilling, being able to return to exercise classes as a consequence of the improvement experienced, etc.).

[5] = test system: tremor; test: Patient group of Examples 1-6 treated for tremor / movement disorder (all types)
[6] = Example 3: person, 30 mg at night, no other medication changed
[7] = Example 3, mirtazapine restarted
[8] = Example 3, several months later, mirtazapine stopped
[9] = Example 5, 15 mg twice a day (total 30 mg)

Compound: CN1CCN2c3ncccc3Cc3ccccc3[C@H]2C1 (racemic) [mirtazapine, 1,2,3,4,10,14b-hexahydro-2-methyl-pyrazino [2,1-a]pyrido [2,3-c]benzazepine]
- patient-reported effect on resting and action tremor (holding cards) ([1]; Example 1: person, mild Parkinson's Disease, 30 mg per day at night, on Sinemet, within days of initial administration): they could hold their cards without embarrassment
- tremor upon reinitiated administration ([1]; Example 1, mirtazapine reinitiated, Sinemet dose unchanged): again experienced resolution of the tremors
- tremor upon cessation of medication ([1]; Example 1, mirtazapine stopped, Sinemet dose unchanged): the tremor (resting and action) returned
- patient-reported change in Parkinsonian tremor [1, 6]: rapid improvement
- tremor upon restarting medication [1, 7]: both movement disorders again responded
- tremor after stopping medication [1, 8]: return of the tremor
- Parkinsonian resting tremor patients who responded ([1]; Examples 1-6, of four patients (fourth not yet returned for follow-up)): three
- time the patient had shaken ([2]; Example 2: person, violent dyskinesias, 3 mg at night, reported the next morning): 15 min
- dopamine-induced dyskinesias after a new dopa agonist (ropirinole) was added ([2]; Example 2, six months later, Sinemet dose stable): no increase in dopamine-induced dyskinesias
- patient-reported change in dopamine-induced dyskinesias [2, 6]: rapid improvement
- dyskinesia upon restarting medication [2, 7]: both movement disorders again responded
- dyskinesia after stopping medication [2, 8]: return of the tremor and dyskinesia
- levodopa-induced dyskinesia patients who responded ([2]; Examples 1-6, of three patients): three
- postural and kinetic tremors on physical exam ([3]; Example 4: person, 20-year upper extremity action tremor, 30 mg at night): greatly reduced
- patient-reported change in action tremor ([3]; Example 5: person, action tremor and anxiety, 15 mg twice a day (total 30 mg)): improvement in the tremor especially when eating or drinking
- clinical exam [3, 9]: improved marginally
- handwriting [3, 9]: remained a problem
- essential tremor patients who responded ([3]; Examples 1-6, of eight patients with essential tremor): five
- sedation side effect ([4]; Example 1, patient currently remaining on mirtazapine): without experiencing any sedation side effect
- drowsiness during the day ([4]; Example 2, 3 mg at night): never reported that they were drowsy during the day
- sedation ([4]; patients of the above-referenced examples): sedation did not occur
- patients responding favorably with marked attenuation of tremor activity ([5]; Example 6, of ten additional patients): seven
- patients responding well with substantial tremor reduction ([5]; Examples 1-6, of a total of fifteen individuals): twelve
- onset of improvement in tremor behavior ([5]; in almost all cases, after an initial 30 mg dose taken in the evening): overnight

Compound: CC(C)NCC(O)COc1cccc2ccccc12 (stereo not shown) [propranolol]
- response of action tremor ([3]; Example 5 patient, before mirtazapine): seemed to respond to propranolol initially
